# Laboratory results taken from US11490622B2, “Substituted heterocycles as harmful arthropod controlling agents” (SUMITOMO CHEMICAL COMPANY, LIMITED, priority 2017, dated 2022).
# Tests used:
# [1] = tested on: Western corn rootworms (Diabrotica virgifera virgifera); assay: Test method 5: corn seedling immersed in diluted solution, Western corn rootworm larvae; assay type: in vivo; settings: 120 h, corn seedling immersed 30 seconds, second instar larvae, after 5 days, 25° C., read-out: mortality of insects
# Procedure: Each 1 mg of the test compounds is dissolved into 50 μL of a mixed solution of polyoxyethylene sorbitan mono-cocoate and acetone (polyoxyethylene sorbitan mono-cocoate:acetone=5:95 (v/v ratio)). Thereto is added water containing 0.03% by volume of Shindain (registered trademark) to prepare a diluted solution containing a prescribed concentration of the test compound.
# A young entire seedling of Corns (Zea mays) is immersed into the diluted solution for 30 seconds. Thereafter, each two grains of the seedlings are installed in a plastic petri dish ([…]), and 10 Western corn rootworms (Diabrotica virgifera virgifera) at the second instar larval stage are released into the dish. After 5 days, the number of the dead insects is counted, and the mortality of insects is calculated by the following equation. Mortality (%)={Number of dead insects/10}×100
# Present compound Nos: 1, 4, 7, 9 to 13, 23, 24, 26 to 29, 32, 33, 35, 38, 39, 41, 43, 44, 47, 48, 59, 60, 62, 63, 67 to 70, 73 to 83, and 96
# [2] = tested on: tobacco cutworms (Spodoptera litura); assay: Test method 3: sprayed cabbage seedling, tobacco cutworm larvae; assay type: in vivo; settings: 120 h, sprayed 20 mL/seedling on cabbage, second instar larvae, after 5 days, 25° C., read-out: mortality of insects
# Procedure: Test compounds are made to a formulation according to a similar method to that described in the Formulation example 5, and thereto is added water containing 0.03 v/v % of Shindain (registered trademark) to prepare a diluted solution containing a prescribed concentration of the test compound.
# Cabbage (Brassicae oleracea) seedling (on the developmental stage of the second to third true leaf) is planted in a cup, and the diluted solutions are sprayed into the seedling at a ratio of 20 mL/seedling. Thereafter, the stem and leaf thereof is cut out and then is installed into a cup that is covered with filter paper on the bed of the cup. Five (5) tobacco cutworms (Spodoptera litura) at the second instar larval stage are released into the cup. After 5 days, the number of the surviving insects is counted, and the mortality of insects is calculated by the following equation. Mortality (%)=(1−Number of surviving insects/5)×100
# Present compound Nos: 1, 3, 4, 6 to 12, 23, 25 to 30, 32, 35 to 43, 47 to 49, 92, 93, 97, and 107
smiles,measurement,setting,value
CCSc1c(-c2ccc(OCC(F)(F)C(F)(F)F)n(C)c2=O)nc2ccc(C(F)(F)F)cn12 [compound 1],mortality at 500 ppm,[1],≥ 80%
same,mortality at 500 ppm,[2],≥ 80%
